# Experimental data from publication PMC10840179, “Chemical and biological characterization of Melaleuca subulata (Cheel) Craven leaves’ volatile constituents supported by chemometric analysis and molecular docking” (BMC Complementary Medicine and Therapies, 2024).
# Molecular target: T1, collagenase
# T1 construct: gene colG; docking used another collagenase (printed PDB 465C / 456C)
# Test: FALGPA hydrolysis, ninhydrin, absorbance at […] nm
# Type: biochemical
# Details: FALGPA substrate, 50 mM tricine, 37 °C, 20 min preincubation; metal chelator
compound,measurement,value
O=C(O)CN(CCN(CC(=O)O)CC(=O)O)CC(=O)O [EDTA],IC50 ± SD (% inhibition ± SD) / Anti-collagenase,315.12 ± 2.21 µg/mL
